One series has as its system SJSA-1 osteosarcoma line. As to conditions: SJSA-1, amplified MDM2 gene; cited from earlier work.
For series [1], the system named is human and mouse normal fibroblasts. As to conditions: cited from earlier work.
Series [2] has as its system SJSA-1, HCT116 p53wt/wt, SAOS2 and HCT116 p53-/- cells. Put plainly: Cell proliferation inhibition assay (YOPRO), p53 wild-type and p53 mutant cell lines. In kind it is cell-based. As to conditions: 72 hours, p53 wild-type vs p53 mutant cell lines. The method, then:
Lucern, Switzerland). Briefly, cells are plated in 96-well plates overnight at 37° C. and are treated with increasing concentrations of MDM2i(1) or MDM2i(2) for 72 hours. Cell concentration in each well is then determined using the DNA-interacting fluorescent dye YOPRO according to the manufacturer's instructions and the fluorescent signal is measured using a Gemini-EM standard plate reader (Molecular Devices: Sunnyvale, Calif., USA).

A further series has as its system C3A cells. Kind of series: Western blot of p53 pathway proteins, C3A sensitive cells. The series is classed as cell-based. As to conditions: 4 hours. How it is done: (§1) That the biomarkers in Table 2/FIG. 3 are reflective of a functional p53 pathway in MDM2i sensitive cells is verified in FIG. 4. […]. Whole cell lysates were prepared using a cell lysis buffer containing 50 mM Tris-HCl pH 7.5, 120 mM NaCl, 1 mM EDTA, 6 mM EGTA pH 8.5, 1% NP-40, 20 mM NaF, 1 mM PMSF and 0.5 mM Na-Vanadat, proteins were separated on NuPAGE 4-12% Bis-Tris Gel (Invitrogen # NP0322BOX, Lucerne; Switzerland), transferred onto Nitrocellulose Protran® BA 85 membranes (Whatman #10 401 261: Piscataway, N.J., USA) at 1.5 mA/cm^2 membrane for 2 h using a semi-dry blotting system, and immunoblotted with either an anti-phospho-p53 (Ser^15) (1/1000; Cell Signaling Technology #9284: Beverly, Mass., USA) rabbit polyclonal antibody, or an anti-p53 (Ab-6) (Pantropic, clone DO-1,) (1/1000; Calbiochem # OP43 San Diego, Calif., USA), an anti-MDM2 (Ab-1, clone IF2) (1/1000; Calbiochem # OP46), an anti-p21^WAF1(Ab-1, clone EA10) (1/500; Calbiochem # OP64: San Diego, Calif., USA) or an anti-α-Tubulin (Sigma # T5168: St. Louis, Mo., USA) mouse monoclonal antibodies, as indicated. […].
(A western blot detects proteins with antibodies after separation by electrophoresis.)

The test system of a further series is COLO 792 cells. Put plainly: Western blot of p53 pathway proteins, COLO 792 insensitive cells. The series is classed as cell-based. To be noted: increasing concentrations, 4 hours. How it is done: as §1
The subject of series [3] is SJSA-1 osteosarcoma cells. Kind of series: SJSA-1 xenograft tumor growth in nude mice. In kind it is in vivo. To be noted: 10-day treatment. The method, then:
To further validate the predictive biomarkers disclosed in FIG. 3, in vivo human xenograft models either from human primary samples or from cell lines were directly injected and grown in tumors subcutaneously in mice and then assessed for MDM2i sensitivity. All the animals were allowed to adapt for 4 days and housed in a pathogen-controlled environment (5 mice/Type III cage) with access to food and water ad libitum. Animals were identified with transponders. Studies were performed according to procedures covered by permit number 1975 issued by the Kantonales Veterinäramt Basel-Stadt and strictly adhered to the Eidgenössisches Tierschutzgesetz and the Eidgenössische Tierschutzverordnung. […] Tumor volumes (TVol), determined from caliper measurements (using the formula I×w×h×τ/6) were measured three times per week. Tumor response was quantified by the change in tumor volume (endpoint minus starting value in mm^3) as the T/C, i.e.
[formula] In the case of a tumor regression, the tumor response was quantified by the percentage of regression of the starting TVol, i.e.
[formula] The body-weight (BW) of the mice was measured three times per week allowing calculation at any particular time-point relative to the day of initiation of treatment (day 0) of both the percentage change in BW (Δ % BW). […]

The subject of series [4] is p21(CDKN1A). Put plainly: p21(CDKN1A) mRNA levels in SJSA-1 tumors (qRT-PCR). In kind it is in vivo, mice. To be noted: SJSA-1 xenograft, 25-100 mg/kg q24h. The method, then: Briefly, total RNA was purified from cell pellets using the QIAshredder® (79654, Qiagen: Valencia Calif., USA) and RNeasy Mini Kit® (74106, Qiagen: Valencia Calif., USA) according to the manufacturer's instructions, with the exception that no DNA digestion was performed. Total RNA was eluted with 50 μL of RNase-free water. Total RNA was quantitated using the spectrophotometer ND-1000 Nanodrop® (Wilmington Del., USA). The qRT-PCR (Quantitative Reverse Transcriptase Polymerase Chain Reaction) was set up in triplicate per sample using the One-Step RT qPCR Master Mix Plus (RT-QPRT-032×, Eurogentec: Seraing, Belgium), with either control primers and primers for human p21(CDKN1A) (Hs00355782_m1, Applied Biosystems: Carlsbad Calif., USA) or mouse p21(CDKN1A) (Mm00432448_m1, Applied Biosystems: Carlsbad Calif., USA), namely TaqMan Gene Expression kit assays (20× probe dye FAM™ (or VIC)-TAMRA (or MGB); Applied Biosystems: Carlsbad Calif., USA). […] The number of cycles (CT) was determined, 2^−CT values were calculated, and the value normalized by dividing with the 2^−CT value obtained from the Gapdh control. Fold increase over control (i.e. DMSO- or vehicle-treated animals) was calculated and plotted in the bar graph.

Series [5] relates to p21(CDKN1A). Kind of series: p21(CDKN1A) protein levels in SJSA-1 tumors (immunohistochemistry). The series is classed as in vivo, mice. To be noted: SJSA-1 xenograft. How it is done: SJSA-1 xenograft tumors were collected and a 3-4 mm slice out of the middle of the tumor was removed, transferred into pre-labelled histo-cassettes and immersion-fixed in neutral buffered formalin (NBF) 10% (v/v) (pH 6.8-7.2) (J. T. Baker, Winter Garden, Fla., USA), pre-cooled at 4° C. Tumors were then fixed at room temperature for 24 hours, followed by processing in the TPC 15Duo (Tissue Processing Center, Medite) for paraffinization. Subsequently, the tumor slices were embedded in paraffin and from each paraffin block several 3 μm thick sections were cut on a rotary microtome (Mikrom International AG, Switzerland), spread in a 48° C. water-bath, mounted on glass slides (SuperFrost Plus, Thermo Scientific: Waltham Mass., USA), and dried in an oven either at 37° C. overnight or at 60° C. for 30 min. Dry tissue section were processed for immunohistochemistry (IHC) staining. p21(CDKN1A) immunohistochemistry has been performed using the mouse monoclonal antibody clone SX118 from Dako (Cat. No. M7202 Dako: Carpenteria Calif., USA) at a dilution of 1:50. Immunohistochemistry has been performed on a Ventana Discovery XT automated immunostainer using the N-Histofine Mousestain Kit (Nichirei Bioscience Inc, Japan) in combination with the DABMap Kit chromogen system, omitting the SA-HRP solution (Ventana/Roche Diagnostics GmbH, Mannheim, Germany). […]

The structures appear in SMILES notation.

For `COc1ccc(C2=N[C@@H](c3ccc(Cl)cc3)[C@@H](c3ccc(Cl)cc3)N2C(=O)N2CCNC(=O)C2)c(OC(C)C)c1` [Nutlin-3], in the series with SJSA-1 osteosarcoma line, the apoptosis result is reported as “increased apoptosis” and the proliferation result is listed as “reduced proliferation”. Further, in series [1], the “proliferation of normal fibroblasts” value was “proliferation of the cells was slowed” and the “viability of normal fibroblasts” value is “retained their viability”.
Regarding `COc1cc2c(cc1OC(C)C)[C@H](c1ccc(Cl)cc1)N(c1ccc(N(C)C[C@H]3CC[C@H](N4CCNC(=O)C4)CC3)cc1)C(=O)C2` [MDM2i(2)], in series [2], the tumor cell proliferation result is “hampering tumor cell proliferation in a p53-dependent manner”.
For `COc1cc2c(cc1OC(C)C)[C@H](c1ccc(Cl)cc1)N(c1ccc(N(C)C[C@H]3CC[C@H](N4CCN(C)C(=O)C4)CC3)cc1)C(=O)C2` [MDM2i(1)], the tumor cell proliferation result in series [2] is “hampering tumor cell proliferation in a p53-dependent manner”. Besides, the phospho-p53 result in the series with C3A cells (C3A cells, increasing concentrations) is reported as “no significant increase”; with COLO 792 cells, “no significant increase”. In addition, the “expression of p53 target genes p21(CDKN1A) and MDM2” value in the series with C3A cells (C3A sensitive cells) was “strong de novo expression”. In addition, the “T/C (tumor growth inhibition)” value was 50% in series [3] (25 mg/kg q24h) and 3% in series [3] (50 mg/kg q24h). Moreover, the “p21(CDKN1A) mRNA levels in tumors” value in the series on p21(CDKN1A) [4] is “significant dose-dependent induction”. Also, the “p21(CDKN1A) protein levels in tumors” value with p21(CDKN1A) [5] is “significant dose-dependent induction”.
